Source: patent publication US20230250066A1, “HERBICIDAL CINNOLINE DERIVATIVES” (SYNGENTA CROP PROTECTION AG, priority 2020, published 2023)

Experiments:
Assay type in all cases: in vivo
[1] = system: Amaranthus retoflexus (AMARE); assay: Pre-emergence herbicidal test; conditions: 1000 g/ha, evaluated after 13 days
Setaria faberi (SETFA) [2] = assay: Pre-emergence herbicidal test; conditions: 1000 g/ha, evaluated after 13 days
[3] = system: Echinochloa crus-galli (ECHCG); assay: Pre-emergence herbicidal test; conditions: 1000 g/ha, evaluated after 13 days
[4] = system: Ipomoea hederacea (IPOHE); assay: Pre-emergence herbicidal test; conditions: 1000 g/ha, evaluated after 13 days
[5] = system: Abutilon theophrasti (ABUTH); assay: Pre-emergence herbicidal test; conditions: 1000 g/ha, evaluated after 13 days
Zea mays (ZEAMX) [6] = assay: Pre-emergence herbicidal test; conditions: 1000 g/ha, evaluated after 13 days
[7] = system: Abutilon theophrasti (ABUTH); assay: Post-emergence herbicidal test; conditions: 1000 g/ha unless otherwise stated, evaluated after 13 days
Method in brief: (§1)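 Pots sown in standard soil were kept in a glasshouse (24° C./16° C. day/night, 14 hours light, 65% humidity) and sprayed at 1000 g/ha unless otherwise stated in acetone/water (50:50) with 0.5% Tween 20. Percentage damage was scored after 13 days on a 0–5 scale.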

[8] = system: Amaranthus retoflexus (AMARE); assay: Post-emergence herbicidal test; conditions: 1000 g/ha unless otherwise stated, evaluated after 13 days
Method in brief: as §1

[9] = system: Echinochloa crus-galli (ECHCG); assay: Post-emergence herbicidal test; conditions: 1000 g/ha unless otherwise stated, evaluated after 13 days
Method in brief: as §1

[10] = system: Ipomoea hederacea (IPOHE); assay: Post-emergence herbicidal test; conditions: 1000 g/ha unless otherwise stated, evaluated after 13 days
Method in brief: as §1

Setaria faberi (SETFA) [11] = assay: Post-emergence herbicidal test; conditions: 1000 g/ha unless otherwise stated, evaluated after 13 days
Method in brief: as §1

Zea mays (ZEAMX) [12] = assay: Post-emergence herbicidal test; conditions: 1000 g/ha unless otherwise stated, evaluated after 13 days
Method in brief: as §1

| Structure (SMILES) | percentage damage caused to the plant, five-point scale, AMARE [1] | percentage damage caused to the plant, five-point scale, SETFA (Setaria faberi (SETFA) [2]) | percentage damage caused to the plant, five-point scale, ECHCG [3] | percentage damage caused to the plant, five-point scale, IPOHE [4] | percentage damage caused to the plant, five-point scale, ABUTH [5] | percentage damage caused to the plant, five-point scale, ZEAMX (Zea mays (ZEAMX) [6]) | percentage damage caused to the plant, ABUTH (five-point scale) [7] | percentage damage caused to the plant, AMARE (five-point scale) [8] | percentage damage caused to the plant, ECHCG (five-point scale) [9] | percentage damage caused to the plant, IPOHE (five-point scale) [10] | percentage damage caused to the plant, SETFA (five-point scale) (Setaria faberi (SETFA) [11]) | percentage damage caused to the plant, ZEAMX (five-point scale) (Zea mays (ZEAMX) [12]) |
| --- | --- | --- | --- | --- | --- | --- | --- | --- | --- | --- | --- | --- |
| CC(C)Cc1cc(S(C)(=O)=O)c2c(=O)c(C(=O)O)nn(-c3ccc(OC(F)(F)F)cc3)c2c1 [Compound P14, 7-isobutyl-5-methylsulfonyl-4-oxo-1-[4-(trifluoromethoxy)phenyl]cinnoline-3-carboxylic acid] | 1 (1=10-20%) | 1 (1=10-20%) | 1 (1=10-20%) | 0 (0=0%) | 1 (1=10-20%) | 1 (1=10-20%) | 1 (1=10-20%) | 1 (1=10-20%) | 0 (0=0%) | 0 (0=0%) | 0 (0=0%) | 0 (0=0%) |
| CCOC(=O)c1nn(-c2ccc(OC(F)(F)F)cc2)c2cccc(SCC)c2c1=O [Compound P23, ethyl 5-ethylsulfanyl-4-oxo-1-[4-(trifluoromethoxy)phenyl]cinnoline-3-carboxylate] | 0 (0=0%) | 0 (0=0%) | 0 (0=0%) | 0 (0=0%) | 0 (0=0%) | 1 (1=10-20%) | 1 (1=10-20%) | 0 (0=0%) | 1 (1=10-20%) | 1 (1=10-20%) | 1 (1=10-20%) | 1 (1=10-20%) |
| CC(C)(C)COC(=O)c1nn(-c2ccc(OC(F)(F)F)cc2)c2cccc(S(C)(=O)=O)c2c1=O [Compound P68, 2,2-dimethylpropyl 5-methylsulfonyl-4-oxo-1-[4-(trifluoromethoxy)phenyl]cinnoline-3-carboxylate] | 0 (0=0%) | 4 (4=61-80%) | 4 (4=61-80%) | 0 (0=0%) | 0 (0=0%) | 0 (0=0%) | 0 (0=0%) | 0 (0=0%) | 3 (3=41-60%) | 0 (0=0%) | 3 (3=41-60%) | 1 (1=10-20%) |
| Cc1cc(S(C)(=O)=O)c2c(=O)c(C(=O)O)nn(-c3ccc(OC(F)(F)F)cc3)c2c1 [Compound P7, 7-methyl-5-methylsulfonyl-4-oxo-1-[4-(trifluoromethoxy)phenyl]cinnoline-3-carboxylic acid] | 1 (1=10-20%) | 4 (4=61-80%) | 4 (4=61-80%) | 1 (1=10-20%) | 1 (1=10-20%) | 1 (1=10-20%) | 1 (1=10-20%) | 1 (1=10-20%) | 4 (4=61-80%) | 2 (2=21-40%) | 4 (4=61-80%) | 2 (2=21-40%) |
| CCOC(=O)c1nn(-c2ccc(OC(F)(F)F)cc2)c2ccc(F)c(S(C)(=O)=O)c2c1=O [Compound P51, ethyl 6-fluoro-5-methylsulfonyl-4-oxo-1-[4-(trifluoromethoxy)phenyl]cinnoline-3-carboxylate] | 0 (0=0%) | 0 (0=0%) | 0 (0=0%) | 0 (0=0%) | 0 (0=0%) | 0 (0=0%) | 0 (0=0%) | 0 (0=0%) | 0 (0=0%) | 0 (0=0%) | 0 (0=0%) | 0 (0=0%) |
| O=C(O)c1nn(-c2ccc(OC(F)(F)F)cc2)c2cccc([S+]([O-])C3CC3)c2c1=O (stereo not drawn) [Compound P31, 5-cyclopropylsulfinyl-4-oxo-1-[4-(trifluoromethoxy)phenyl]cinnoline-3-carboxylic acid] | 0 (0=0%) | 0 (0=0%) | 0 (0=0%) | 0 (0=0%) | 0 (0=0%) | 0 (0=0%) | 0 (0=0%) | 0 (0=0%) | 0 (0=0%) | 0 (0=0%) | 0 (0=0%) | 0 (0=0%) |
| CC(C)CCSC(=O)c1nn(-c2ccc(OC(F)(F)F)cc2)c2cccc(S(C)(=O)=O)c2c1=O [Compound P91, S-isopentyl 5-methylsulfonyl-4-oxo-1-[4-(trifluoromethoxy)phenyl]cinnoline-3-carbothioate] | 0 (0=0%) | 4 (4=61-80%) | 3 (3=41-60%) | 0 (0=0%) | 0 (0=0%) | 0 (0=0%) | 1 (1=10-20%) | 0 (0=0%) | 3 (3=41-60%) | 1 (1=10-20%) | 4 (4=61-80%) | 1 (1=10-20%) |
| CCOC(=O)c1nn(-c2ccc(OC(F)(F)F)cc2)c2cccc(SC3CC3)c2c1=O [Compound P33, ethyl 5-cyclopropylsulfanyl-4-oxo-1-[4-(trifluoromethoxy)phenyl]cinnoline-3-carboxylate] | 0 (0=0%) | 2 (2=21-40%) | 1 (1=10-20%) | 0 (0=0%) | 0 (0=0%) | 0 (0=0%) | 1 (1=10-20%) | 0 (0=0%) | 0 (0=0%) | 0 (0=0%) | 0 (0=0%) | 0 (0=0%) |
